The results in this text go back to patent US20090136522A1, “Multivalent Immunogen” (priority 2006, published 2009).

The test system of this assay is 4E10 mAb. Description: Binding of chromophore labeled tetramers to 4E10 antibody coated beads. The settings on record: chromophore on tetramer-SA complex. From the text: FIGS. 6A-6F: Binding of chromophore labeled tetramers to 4E10 antibody coated beads. In all panels, shaded curves show binding to control Ig-coated beads and solid lines show binding to 4E10 coated beads. FIG. 6A. 2F5-epitope tetramers labeled with APC. FIG. 6B. 2F5-epitope tetramers labeled with PE-AF680. FIG. 6C. V3-epitope tetramers labeled with PE-AF750. FIG. 6D. Scrambled 2F5-epitope tetramers labeled with APC. FIG. 6E. Scrambled 2F5-epitope tetramers labeled with PE-AF680. FIG. 6F. Scrambled V3-epitope tetramers labeled with PE-AF750. Thus, 4E10 mAb binds to phycoerythrin on any tetramer-SA complex.
The specificity of the tetramers can be determined using a panel of murine hybridoma cell lines that produce either antibodies that react with the 2F5 epitope (5A9), the 4E10 epitope of HIV gp41 (10B12) or the V3 region of HIV gp120 (7B9 or F39F). Using these cell lines, the B cell tetramer can be bound to the cell line and assayed for binding by, for example, flow cytometry (FIGS. 4A and 4B). Alternatively, the 2F5, 4E10 anti-MPER and 7B9 anti-V3 mAbs can be conjugated to, for example, a […], and the specificity of tetramer binding to the beads determined (FIG. 5).
Studies conducted have shown that a mimetope of the MPER 4E10 region is phycoerythrin, in that 4E10 mAb coated beads bound tetramer labeled with phycoerythrin but not allophycocyanin (APC) (FIG. 6). […]

“Also recorded” adds a separate entry of the source.

In the case of allophycocyanin [allophycocyanin (APC)], the “binding to 4E10 mAb coated beads” value is recorded as “not”.
In the case of phycoerythrin it was “binds; also recorded: bound”.
